Reference: the NIST ThermoML archive (doi:10.1016/j.jct.2015.12.031)

Legend:
[1] = refractive index (Na D-line) (dimensionless); mn = molality of the nth substance listed, in mol/kg; details: 86.5 kPa, Liquid, Standard Abbe refractometry
[2] = mn = molality of the nth substance listed, in mol/kg; details: 86.5 kPa, Liquid; for speed of sound: Frequency=3 MHz, Sing-around technique in a fixed-path interferometer; for mass density: Vibrating tube method

c1ccsc1 [thiophene] + CCCCCCCC
Details	mass density, [2] [kg/m3]	refractive index, [1]	speed of sound, [2] [m/s]
288.15 K, m1 = 0.0158	707.297	1.4002	1214.4
288.15 K, m1 = 0.0275	707.523	1.4003	1214.4
288.15 K, m1 = 0.0517	707.987	1.4004	1214.4
288.15 K, m1 = 0.0847	708.616	1.4005	1214.3
288.15 K, m1 = 0.0952	708.817	1.4006	1214.3
288.15 K, m1 = 0.1081	709.062	1.4006	1214.3
288.15 K, m1 = 0.1182	709.253	1.4007	1214.3
288.15 K, m1 = 0.1353	709.577	1.4008	1214.2
288.15 K, m1 = 0.1494	709.844	1.4008	1214.2
288.15 K, m1 = 0.1577	710	1.4009	1214.2
288.15 K, m1 = 0.1729	710.288	1.401	1214.2
288.15 K, m1 = 0.1797	710.414	1.401	1214.2
288.15 K, m1 = 0.1932	710.67	1.4011	1214.2
288.15 K, m1 = 0.2031	710.855	1.4012	1214.1
288.15 K, m1 = 0.3004	712.662	1.4017	1214
288.15 K, m1 = 0.4002	714.496	1.4023	1213.8
288.15 K, m1 = 0.5026	716.351	1.4028	1213.6
288.15 K, m1 = 0.5823	717.77	1.4033	1213.5
293.15 K, m1 = 0.0158	703.296	1.3976	1193.3
293.15 K, m1 = 0.0275	703.52	1.3977	1193.3
293.15 K, m1 = 0.0517	703.981	1.3978	1193.3
293.15 K, m1 = 0.0847	704.605	1.398	1193.2
293.15 K, m1 = 0.0952	704.805	1.3981	1193.2
293.15 K, m1 = 0.1081	705.047	1.3982	1193.2
293.15 K, m1 = 0.1182	705.236	1.3982	1193.2
293.15 K, m1 = 0.1353	705.558	1.3983	1193.2
293.15 K, m1 = 0.1494	705.822	1.3984	1193.2
293.15 K, m1 = 0.1577	705.976	1.3985	1193.2
293.15 K, m1 = 0.1729	706.262	1.3985	1193.2
293.15 K, m1 = 0.1797	706.389	1.3986	1193.1
293.15 K, m1 = 0.1932	706.641	1.3986	1193.1
293.15 K, m1 = 0.2031	706.824	1.3987	1193.1
293.15 K, m1 = 0.3004	708.627	1.3992	1193
293.15 K, m1 = 0.4002	710.432	1.3997	1192.9
293.15 K, m1 = 0.5026	712.275	1.4003	1192.7
293.15 K, m1 = 0.5823	713.683	1.4007	1192.6
298.15 K, m1 = 0.0158	699.223	1.3952	1172.4
298.15 K, m1 = 0.0275	699.447	1.3953	1172.4
298.15 K, m1 = 0.0517	699.907	1.3954	1172.4
298.15 K, m1 = 0.0847	700.53	1.3956	1172.3
298.15 K, m1 = 0.0952	700.728	1.3957	1172.3
298.15 K, m1 = 0.1081	700.97	1.3957	1172.3
298.15 K, m1 = 0.1182	701.159	1.3958	1172.3
298.15 K, m1 = 0.1353	701.48	1.3959	1172.3
298.15 K, m1 = 0.1494	701.743	1.396	1172.3
298.15 K, m1 = 0.1577	701.901	1.3961	1172.3
298.15 K, m1 = 0.1729	702.182	1.3961	1172.3
298.15 K, m1 = 0.1797	702.312	1.3962	1172.2
298.15 K, m1 = 0.1932	702.561	1.3962	1172.2
298.15 K, m1 = 0.2031	702.742	1.3963	1172.2
298.15 K, m1 = 0.3004	704.545	1.3968	1172.1
298.15 K, m1 = 0.4002	706.341	1.3973	1171.9
298.15 K, m1 = 0.5026	708.178	1.3978	1171.8
298.15 K, m1 = 0.5823	709.577	1.3982	1171.6
303.15 K, m1 = 0.0158	695.177	1.3926	1151.5
303.15 K, m1 = 0.0275	695.398	1.3927	1151.5
303.15 K, m1 = 0.0517	695.856	1.3928	1151.4
303.15 K, m1 = 0.0847	696.474	1.393	1151.4
303.15 K, m1 = 0.0952	696.672	1.393	1151.4
303.15 K, m1 = 0.1081	696.912	1.3931	1151.4
303.15 K, m1 = 0.1182	697.101	1.3932	1151.4
303.15 K, m1 = 0.1353	697.419	1.3933	1151.3
303.15 K, m1 = 0.1494	697.682	1.3934	1151.3
303.15 K, m1 = 0.1577	697.834	1.3934	1151.3
303.15 K, m1 = 0.1729	698.118	1.3935	1151.3
303.15 K, m1 = 0.1797	698.244	1.3935	1151.3
303.15 K, m1 = 0.1932	698.492	1.3936	1151.3
303.15 K, m1 = 0.2031	698.675	1.3936	1151.3
303.15 K, m1 = 0.3004	700.46	1.3941	1151.1
303.15 K, m1 = 0.4002	702.25	1.3947	1151
303.15 K, m1 = 0.5026	704.068	1.3953	1150.8
303.15 K, m1 = 0.5823	705.455	1.3957	1150.7
